Values of other authors, collected in publication PMC6453670 (International Journal for Parasitology: Drugs and Drug …, 2019).

Tests used:
Toxoplasma = settings: longer treatment duration; ref Winzer et al., 2015
Neospora = settings: longer treatment duration; ref Ojo et al., 2014; Winzer et al., 2015

## CCOc1ccc2cc(-c3nn(CC4CCN(C)CC4)c4ncnc(N)c34)ccc2c1 [BKI 1294]
Toxoplasma
  Dose at which morphological alterations were seen in vitro: 2.5 μM
Neospora
  Dose at which morphological alterations were seen in vitro: 2.5 μM
